According to US20130022558A1, “Methods For Imrproving the Appearance of Hyperpigmented Spot(s) and Skin Tone” (priority 2011, published 2013):

Tested on: hyperpigmented spots on facial skin
Assay: In vivo testing for hyperpigmented spot reduction (melanin Spot Area Fraction, split face, image analysis)
Parameters: species or system human subjects
Settings: baseline to Week 8, Beijing, approx. January 21 to March 21; compared to the vehicle
Excerpt: The 270 subjects were screened according to inclusion/exclusion criteria which included the following:
Is willing to refrain from sun exposure by using supplied UV lotion and physical UV blocks, such as a hat, to avoid facial sunburn, tanning or wind burn.
• 1. […] Two hundred and seventy subjects were recruited for the study.

`NC(=O)c1cccnc1` [naicinamide, niacinamide] was tested, and the “effect on seasonal skin darkening, in words” value was “mitigated the effects of seasonal skin darkening”.
